Measurements published in patent publication US8618107B2 (Gilead Connecticut, Inc., priority 2010, dated 2013).

target: Btk (Homo sapiens (Human), UniProt Q06187); assay: standard biochemical Btk Kinase Assay (Example 901); conditions: Table 1
Sequence (Q06187 whole entry): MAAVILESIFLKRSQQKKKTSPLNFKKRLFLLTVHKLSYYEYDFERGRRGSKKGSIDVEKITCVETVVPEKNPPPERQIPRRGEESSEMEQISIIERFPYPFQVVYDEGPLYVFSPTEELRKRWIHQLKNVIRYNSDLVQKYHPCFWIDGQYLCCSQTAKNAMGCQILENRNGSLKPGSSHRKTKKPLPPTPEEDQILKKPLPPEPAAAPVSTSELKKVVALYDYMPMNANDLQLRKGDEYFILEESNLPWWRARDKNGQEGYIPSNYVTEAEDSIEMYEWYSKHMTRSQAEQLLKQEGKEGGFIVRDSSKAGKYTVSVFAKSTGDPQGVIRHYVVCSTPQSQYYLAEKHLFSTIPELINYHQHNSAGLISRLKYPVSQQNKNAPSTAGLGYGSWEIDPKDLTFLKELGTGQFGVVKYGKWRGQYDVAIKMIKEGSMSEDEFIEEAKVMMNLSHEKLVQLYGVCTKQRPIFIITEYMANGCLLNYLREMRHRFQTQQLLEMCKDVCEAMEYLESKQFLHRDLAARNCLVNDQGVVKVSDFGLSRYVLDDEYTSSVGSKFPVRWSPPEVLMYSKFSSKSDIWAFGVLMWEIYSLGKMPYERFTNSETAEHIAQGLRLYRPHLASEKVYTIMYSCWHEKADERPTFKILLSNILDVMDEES
Description: Determination of IC50 values can be accomplished using conventional techniques known in the art. In general, an IC50 can be determined by measuring the activity of a given enzyme in the presence of a range of concentrations of the inhibitor under study. The experimentally obtained values of enzyme activity then are plotted against the inhibitor concentrations used. […] Analogously, other inhibitory concentrations can be defined through appropriate determinations of activity.

Row | SMILES | IC50
1 | Cc1c(-c2cc(Nc3cc4n(n3)CCN(C)C4)c(=O)[nH]n2)cccc1N1CCn2c(cc3c2CCCC3)C1=O [Example 101] | 2 nM
2 | Cn1cc(-c2cccc(N3CCn4c(cc5c4CCCC5)C3=O)c2CO)cc(Nc2cc(C3CC3)[nH]n2)c1=O [Example 106, 2-(3-(5-(5-cyclopropyl-1H-pyrazol-3-ylamino)-1-methyl-6-oxo-1,6-dihydropyridin-3-yl)-2-(hydroxymethyl)phenyl)-3,4,6,7,8,9-hexahydropyrazino[1,2-a]indol-1(2H)-one] | 1 nM
3 | Cc1c(-c2cc(Nc3cc4n(n3)CCN(C)C4)c(=O)[nH]n2)cccc1N1CCn2c(cc3ccccc32)C1=O [Example 102] | 22.9 nM
4 | Cc1c(-c2cc(Nc3cc4n(n3)CCN(C)C4)c(=O)n(C)n2)cccc1N1Cc2c(sc3ccccc23)C1=O [Example 103, 4-{2-Methyl-3-[1-methyl-5-({5-methyl-4H,5H,6H,7H-pyrazolo[1,5-a]pyrazin-2-yl}amino)-6-oxo-1,6-dihydropyridazin-3-yl]phenyl}-7-thia-4-azatricyclo[6.4.0.0^2,6]dodeca-1(8),2(6),9,11-tetraen-5-one] | 3200 nM
5 | CC(=O)N1CCn2nc(Nc3cc(-c4cccc(N5CCn6c(cc7c6CCCC7)C5=O)c4CO)cn(C)c3=O)cc2C1 [Example 108, 2-(3-(5-(5-acetyl-4,5,6,7-tetrahydropyrazolo[1,5-a]pyrazin-2-ylamino)-1-methyl-6-oxo-1,6-dihydropyridin-3-yl)-2-(hydroxymethyl)phenyl)-3,4,6,7,8,9-hexahydropyrazino[1,2-a]indol-1(2H)-one] | 6.1 nM

same assay, conditions: Table 2

Row | SMILES | IC50
6 | CN1CCN(c2ccc(Nc3cc(-c4cccc(N5CCn6c(cc7c6CCCC7)C5=O)c4CO)nn(C)c3=O)nc2)CC1 [Example 307, 2-(2-(Hydroxymethyl)-3-(1-methyl-5-(5-(4-methylpiperazin-1-yl)pyridin-2-ylamino)-6-oxo-1,6-dihydropyridazin-3-yl)phenyl)-3,4,6,7,8,9-hexahydropyrazino[1,2-a]indol-1(2H)-one] | 7.1 nM
7 | Cn1cc(-c2cccc(N3CCn4c(cc5c4CCCC5)C3=O)c2CO)cc(Nc2ccc(N3CCNCC3)cn2)c1=O [Example 301, 2-(2-(Hydroxymethyl)-3-(1-methyl-6-oxo-5-(5-(piperazin-1-yl)pyridin-2-ylamino)-1,6-dihydropyridin-3-yl)phenyl)-3,4,6,7,8,9-hexahydropyrazino[1,2-a]indol-1(2H)-one] | 6.1 nM
8 | CN1CC(c2ccc(Nc3nc(-c4cc(F)cc(N5CCc6c(sc7c6CC(C)(C)C7)C5=O)c4CO)cn(C)c3=O)cc2)C1 [Example 298, 10-[5-fluoro-2-(hydroxymethyl)-3-(4-methyl-6-{[4-(1-methylazetidin-3-yl)phenyl]amino}-5-oxopyrazin-2-yl)phenyl]-4,4-dimethyl-7-thia-10-azatricyclo[6.4.0.0^2,6]dodeca-1(8),2(6)-dien-9-one] | 5.3 nM
9 | Cn1cc(-c2cccc(N3CCc4c(cc5n4CCCC5)C3=O)c2CO)cc(Nc2cc3n(n2)CCOC3)c1=O [Example 309, 5-[2-(Hydroxymethyl)-3-{1-oxo-1H,2H,3H,4H,6H,7H,8H,9H-pyrido[3,4-b]indolizin-2-yl}phenyl]-1-methyl-3-{4H,6H,7H-pyrazolo[3,2-c][1,4]oxazin-2-ylamino}-1,2-dihydropyridin-2-one] | 16.5 nM
10 | Cc1cc(Nc2cc(-c3cc(F)cc(N4CCn5c(cc6c5CC(C)(C)C6)C4=O)c3CO)cn(C)c2=O)n[nH]1 [Example 276, 10-[5-Fluoro-2-(hydroxymethyl)-3-{1-methyl-5-[(5-methyl-1H-pyrazol-3-yl)amino]-6-oxo-1,6-dihydropyridin-3-yl}phenyl]-4,4-dimethyl-1,10-diazatricyclo[6.4.0.0^2,6]dodeca-2(6),7-dien-9-one] | 2.2 nM
11 | CN1CC(c2ccc(Nc3cc(-c4cc(F)cc(N5CCn6c(cc7c6CC(C)(C)C7)C5=O)c4CO)cn(C)c3=O)nc2)C1 [Example 271, 10-[5-Fluoro-2-(hydroxymethyl)-3-(1-methyl-5-{[5-(1-methylazetidin-3-yl)pyridine-2-yl]amino}-6-oxo-1,6-dihydropyridin-3-yl)phenyl]-4,4-dimethyl-1,10-diazatricyclo[6.4.0.0^2,6]dodeca-2(6),7-dien-9-one] | 4.7 nM
12 | Cn1cc(-c2cc(F)cc(N3CCn4c(cc5c4CC(C)(C)C5)C3=O)c2CO)cc(Nc2ccc(CN3CCOCC3)cn2)c1=O [Example 274, 10-[5-Fluoro-2-(hydroxymethyl)-3-(1-methyl-5-{[5-(morpholin-4-ylmethyl)pyridine-2-yl]amino}-6-oxo-1,6-dihydropyridin-3-yl)phenyl]-4,4-dimethyl-1,10-diazatricyclo[6.4.0.0^2,6]dodeca-2(6),7-dien-9-one] | 2.34 nM
13 | CN1CCC(c2ccc(Nc3nc(-c4cc(F)cc(N5CCc6c(sc7c6CC(C)(C)C7)C5=O)c4CO)cn(C)c3=O)cc2)CC1 [Example 278, 10-[5-Fluoro-2-(hydroxymethyl)-3-(4-methyl-6-{[4-(1-methylpiperidin-4-yl)phenyl]amino}-5-oxo-4,5-dihydropyrazin-2-yl)phenyl]-4,4-dimethyl-7-thia-10-azatricyclo[6.4.0.0^2,6]dodeca-1(8),2(6)-dien-9-one] | 2.6 nM
14 | CN1CCC(c2ccc(Nc3nc(-c4cc(F)cc(N5CCn6c(cc7c6CCCC7)C5=O)c4CO)cn(C)c3=O)cc2)CC1 [Example 282, 2-(5-Fluoro-2-(hydroxymethyl)-3-(4-methyl-6-(4-(1-methylpiperidin-4-yl)phenylamino)-5-oxo-4,5-dihydropyrazin-2-yl)phenyl)-3,4,6,7,8,9-hexahydropyrazino[1,2-a]indol-1(2H)-one] | 4 nM
15 | CN1CCC[C@@H]1c1ccc(Nc2cc(-c3cc(F)cc(N4CCn5c(cc6c5CC(C)(C)C6)C4=O)c3CO)cn(C)c2=O)nc1 [Example 291, 10-[5-Fluoro-2-(hydroxymethyl)-3-[1-methyl-5-({5-[(2R)-1-methylpyrrolidin-2-yl]pyridine-2-yl}amino)-6-oxo-1,6-dihydropyridin-3-yl]phenyl]-4,4-dimethyl-1,10-diazatricyclo[6.4.0.0^2,6]dodeca-2(6),7-dien-9-one] | 1.74 nM
16 | CN1CCC(c2ccc(Nc3nc(-c4cc(F)cc(N5CCc6c(sc7c6CCCC7)C5=O)c4CO)cn(C)c3=O)cc2)CC1 [Example 281, 5-[5-Fluoro-2-(hydroxymethyl)-3-(4-methyl-6-{[4-(1-methylpiperidin-4-yl)phenyl]amino}-5-oxo-4,5-dihydropyrazin-2-yl)phenyl]-8-thia-5-azatricyclo[7.4.0.0^2,7]trideca-1(9),2(7)-dien-6-one] | 5.2 nM
17 | Cn1cc(-c2cc(F)cc(N3CCn4c(cc5c4CCCC5)C3=O)c2CO)cc(Nc2ccc(C3CCN(C4COC4)CC3)cn2)c1=O [Example 265, 2-(5-Fluoro-2-(hydroxymethyl)-3-(1-methyl-5-(5-(1-(oxetan-3-yl)piperidin-4-yl)pyridin-2-ylamino)-6-oxo-1,6-dihydropyridin-3-yl)phenyl)-3,4,6,7,8,9-hexahydropyrazino[1,2-a]indol-1(2H)-one] | 2.8 nM
18 | CN1CCC(c2ccc(Nc3nc(-c4cc(F)cc(N5CCn6c(cc7c6CC(C)(C)C7)C5=O)c4CO)cn(C)c3=O)cc2)CC1 [Example 294, 10-[5-Fluoro-2-(hydroxymethyl)-3-(4-methyl-6-{[4-(1-methylpiperidin-4-yl)phenyl]amino}-5-oxo-4,5-dihydropyrazin-2-yl)phenyl]-4,4-dimethyl-1,10-diazatricyclo[6.4.0.0^2,6]dodeca-2(6),7-dien-9-one] | 16 nM
